Measured values published in the NIST ThermoML archive (doi:10.1021/acs.jced.7b00898).

Test: xn = mol fraction of the nth substance listed
Conditions: 100 kPa, Liquid; for electrical conductivity: Alternating current cell with electrodes; for viscosity: Falling or rolling sphere viscometry; for mass density: Vibrating tube method

C[n+]1ccn(CCCC#N)c1.F[B-](F)(F)F [1-butyronitrile-3-methylimidazolium tetrafluoroborate] + CC#N
Conditions	electrical conductivity [S/m]	mass density [kg/m3]	viscosity [mPa·s]
288.15 K, x1 = 0.1004	3.71	951.03	1.783
288.15 K, x1 = 0.2003	2.62	1058.56	5.545
288.15 K, x1 = 0.3013	1.68	1131.24	13.17
288.15 K, x1 = 0.3996	1.05	1179.83	30.38
288.15 K, x1 = 0.4999	0.558	1218.22	72.81
288.15 K, x1 = 0.5996	0.365	1248.27	105.8
288.15 K, x1 = 0.7001	0.28	1271.85	150.9
288.15 K, x1 = 0.8024	0.157	1289.62	287
288.15 K, x1 = 0.8885	0.126	1302.35	372.8
288.15 K, x1 = 1	0.058	1316.07	590.6
293.15 K, x1 = 0.1004	3.98	946.91	1.645
293.15 K, x1 = 0.2003	2.89	1054.28	4.901
293.15 K, x1 = 0.3013	1.93	1126.73	11.15
293.15 K, x1 = 0.3996	1.24	1175.56	24.74
293.15 K, x1 = 0.4999	0.685	1214.12	56.55
293.15 K, x1 = 0.5996	0.467	1244.16	80.64
293.15 K, x1 = 0.7001	0.352	1268.21	113.9
293.15 K, x1 = 0.8024	0.208	1286.11	207.7
293.15 K, x1 = 0.8885	0.174	1298.72	266.5
293.15 K, x1 = 1	0.085	1312.33	417.9
298.15 K, x1 = 0.1004	4.28	942.92	1.52
298.15 K, x1 = 0.2003	3.2	1049.89	4.361
298.15 K, x1 = 0.3013	2.21	1122.41	9.572
298.15 K, x1 = 0.3996	1.46	1171.47	20.18
298.15 K, x1 = 0.4999	0.834	1210.15	45.13
298.15 K, x1 = 0.5996	0.588	1240.19	62.96
298.15 K, x1 = 0.7001	0.47	1264.41	87.6
298.15 K, x1 = 0.8024	0.286	1282.71	154.3
298.15 K, x1 = 0.8885	0.236	1294.92	195.6
298.15 K, x1 = 1	0.123	1308.61	302.6
303.15 K, x1 = 0.1004	4.56	938.82	1.412
303.15 K, x1 = 0.2003	3.51	1045.59	3.908
303.15 K, x1 = 0.3013	2.5	1117.84	8.303
303.15 K, x1 = 0.3996	1.7	1167.21	16.91
303.15 K, x1 = 0.4999	0.997	1205.98	36.59
303.15 K, x1 = 0.5996	0.719	1236.29	50.09
303.15 K, x1 = 0.7001	0.585	1260.73	68.7
303.15 K, x1 = 0.8024	0.372	1279.28	117.1
303.15 K, x1 = 0.8885	0.308	1291.38	147
303.15 K, x1 = 1	0.171	1304.81	223.3
308.15 K, x1 = 0.1004	4.84	934.73	1.315
308.15 K, x1 = 0.2003	3.83	1041.36	3.529
308.15 K, x1 = 0.3013	2.8	1113.43	7.266
308.15 K, x1 = 0.3996	1.97	1163.02	14.47
308.15 K, x1 = 0.4999	1.19	1201.89	30.15
308.15 K, x1 = 0.5996	0.87	1232.29	40.62
308.15 K, x1 = 0.7001	0.719	1257.04	54.9
308.15 K, x1 = 0.8024	0.475	1275.69	90.99
308.15 K, x1 = 0.8885	0.392	1287.73	112.9
308.15 K, x1 = 1	0.231	1301.05	169.9
313.15 K, x1 = 0.1004	5.13	930.78	1.228
313.15 K, x1 = 0.2003	4.16	1037.03	3.204
313.15 K, x1 = 0.3013	3.1	1109.04	6.436
313.15 K, x1 = 0.3996	2.27	1158.93	12.49
313.15 K, x1 = 0.4999	1.4	1197.89	25.23
313.15 K, x1 = 0.5996	1.04	1228.43	33.47
313.15 K, x1 = 0.7001	0.87	1253.43	44.63
313.15 K, x1 = 0.8024	0.599	1272.33	71.79
313.15 K, x1 = 0.8885	0.491	1284.14	88.12
313.15 K, x1 = 1	0.305	1297.32	128.7
318.15 K, x1 = 0.1004	5.41	926.61	1.153
318.15 K, x1 = 0.2003	4.49	1032.73	2.936
318.15 K, x1 = 0.3013	3.4	1104.71	5.741
318.15 K, x1 = 0.3996	2.59	1154.62	10.85
318.15 K, x1 = 0.4999	1.63	1193.83	21.38
318.15 K, x1 = 0.5996	1.22	1224.39	28
318.15 K, x1 = 0.7001	1.04	1249.69	36.82
318.15 K, x1 = 0.8024	0.734	1268.86	57.48
318.15 K, x1 = 0.8885	0.603	1280.51	70.08
318.15 K, x1 = 1	0.393	1293.59	100.6
323.15 K, x1 = 0.1004	5.69	922.4	1.084
323.15 K, x1 = 0.2003	4.82	1028.51	2.695
323.15 K, x1 = 0.3013	3.7	1100.31	5.152
323.15 K, x1 = 0.3996	2.95	1150.56	9.38
323.15 K, x1 = 0.4999	1.87	1189.85	17.96
323.15 K, x1 = 0.5996	1.42	1220.51	23.76
323.15 K, x1 = 0.7001	1.22	1245.99	30.77
323.15 K, x1 = 0.8024	0.872	1265.38	47.05
323.15 K, x1 = 0.8885	0.73	1276.87	56.76
323.15 K, x1 = 1	0.498	1289.86	79.82
